# Results from patent US20050032688A1, “Use of angiotensin II fragments and analogs thereof in tissue repair” (University of Southern California, priority 1993, published 2005).
# “Also recorded” adds a separate entry of the source. Read-outs that look alike come from different tables or passages of the source. Ends that are not written are not given here.
# How the values were obtained:
# [1] = test system: porcine coronary artery rings; settings: perhaps through nitric oxide; cited from earlier work
# [2] = test system: neurons in the paraventricular nucleus; settings: cited from earlier work
# water intake = settings: injected into the anterior diencephalons in the rat; cited from earlier work
# blood pressure [3] = settings: intracerebroventricular infusion in the rat; concentrations 1000× higher than that of AII that increased blood pressure; cited from earlier work
# [4] = test system: full thickness dermal wounds; test: Wound closure and granulation tissue in full thickness dermal wounds, carboxymethyl cellulose vehicle (Example 3); type: in vivo, Female Sprague Dawley rats; settings: tested fragments of AII
# Method: Female Sprague Dawley rats, 175-200 g, were obtained from Simonsen Laboratories, Gilroy, Calif. On the day of surgery, the rats received intramuscular ketamine/rompum anesthesia prior to preparation for surgery. The rats were shaved and scrubbed with betadine. Two 1.5×1.5 cm full thickness dermal wounds were created on the dorsal surface of the rat. Following excision of the skin, the size of the wound was outlined on a glass slide and the medicament was administered ini 100 μl 10% low viscosity carboxymethyl cellulose (Sigma). The test materials were administered in a randomized fashion; all materials were tested at 100 μg/wound. Controls were treated with vehicle only. After administration of the materials, the rats were bandaged and allowed to recover from anesthesia. On days 1-4 after surgery, the rats were treated with an additional 100 μg of peptide formulation. At days 2, 4, 7 and 9, the area of the skin wounds were measured under methoxyflurane anesthesia (commercially available as Metofane from Pittman-Moore, Mundelein, Ill.). The area of the wound was determined by: (1) tracing the wound shape onto graph paper (1×1 mm squares); (2) cutting out the shape; (3) weighing the paper and comparing the weight with a 1.5×1.5 cm paper cutout; and (4) counting the number of squares. In addition, on days 2, 4 and 7, the area of granulation tissue was similarly determined.
# [5] = test system: porcine aortic endothelial cells; settings: cited from earlier work
# wound tissue = settings: application to wound tissue; cited from earlier work
# rat mesangial cells = settings: through the AT1 receptor; cited from earlier work
# [6] = test system: rat glomerulus preparations; settings: through the AT1 receptor; cited from earlier work
# [7] = test system: porcine vascular smooth muscle cells; settings: cited from earlier work
# human astrocytes = settings: cited from earlier work
# [8] = test system: rat isolated nodose ganglion; settings: cited from earlier work
# [9] = test system: motility, stereotypy and learning of conditioned avoidance responses; settings: injected in the lateral cerebral ventricle, rats; cited from earlier work
# rat adrenal medulla = settings: cited from earlier work
# [10] = test system: baroreceptor-heart-reflex; settings: in vivo; cited from earlier work
# blood pressure [11] = settings: in vivo; cited from earlier work
# blood pressure [12] = settings: cited from earlier work
# [13] = in contrast to AII; cited from earlier work
substance,measurement,setting,value
Val-Tyr-Ile-His-Pro-Phe (VYIHPF) [AII(3-8)],dilation of coronary artery rings,[1],not observed
Arg-Val-Tyr-Ile-His-Pro (RVYIHP) [AII(2-7)],excitation of neurons,[2],inactive
Ile-His-Pro-Phe (IHPF) [AII(5-8)],effect on water intake,water intake,only a slight effect
same,effect on blood pressure,blood pressure [3],minimal effect
Try-Ile-His-Pro-Phe (YIHPF) [AII(4-8)],effectiveness in wound healing,[4],not to be effective; also recorded: ineffective
same,effect on water intake,water intake,only a slight effect
same,effect on blood pressure,blood pressure [3],minimal effect
"AI: a decapeptide called angiotensin I which is converted to angiotensin II (DRVYIHPFHL; Angiotensin-1; UniProt P01019 25-34, looked up)",release of prostaglandin E2 and 12,[5],stimulated
Asp-Arg-Val-Tyr-Ile-His-Pro-Phe (DRVYIHPF) [AII],rate of wound healing,wound tissue,significantly increases
same,choline production,rat mesangial cells,stimulates
same,release of prostaglandin E2 and 12,[5],did not have this effect
same,"formation of cAMP in response to histamine, serotonin and parathyroid hormone",[6],inhibited
same,prostaglandin release,[7],increases
same,release of intracellular Ca2+,[7],increases
same,prostaglandin release,human astrocytes,increases
same,release of intracellular Ca2+,human astrocytes,increases
same,dilation of coronary artery rings,[1],not observed
same,depolarization of nodose ganglion,[8],causes depolarization
same,excitation of neurons,[2],excited
same,"motility, stereotypy and learning of conditioned avoidance responses (psychotropic activities)",[9],increased
same,evoked neuronal norepinephrine release,rat adrenal medulla,biphasic effect
same,spontaneous neuronal norepinephrine release,rat adrenal medulla,increasing
same,sensitivity of the baroreceptor-heart-reflex,[10],enhances
His-Pro-Phe (HPF) [AII(6-8)],effectiveness in wound healing,[4],not to be effective
Arg-Val-Tyr-Ile-His (RVYIH; printed: Arg-Val-Tyr-Ile-His) [AII(2-6)],"motility, stereotypy and learning of conditioned avoidance responses (psychotropic activities)",[9],not active
DRVYIH [AII(1-6)],choline production,rat mesangial cells,very weak effects
same,"motility, stereotypy and learning of conditioned avoidance responses (psychotropic activities)",[9],not active
Val-Tyr-Ile-His-Pro (VYIHP) [AII(3-7)],depressor effect,blood pressure [11],no depressor effect
same,pressor effect,blood pressure [11],less of a pressor effect than AII(1-7)
Asp-Arg-Val-Tyr (DRVY) [AII(1-4)],effect on water intake,water intake,only a slight effect
Asp-Arg-Val-Tyr-Ile-His-Pro (DRVYIHP) [AII(1-7)],"dose at which pressor effects on blood pressure occur, relative to AII",blood pressure [12]; depending upon the model tested and route of administration,10000-100000 times the dose of AII
same,depressor effect on blood pressure,blood pressure [12]; may be mediated through prostanoid synthesis,depressor effect
same,aldosterone release,[13],does not cause
same,catecholamine release,[13],does not cause
same,dipsogenic effect,[13],not dipsogenic
same,amount required relative to AII to get a comparable pressor response,blood pressure [11],about 10000 ×
same,depressor effect,blood pressure [11],long depressor effect
same,pressor effect,blood pressure [11],weak pressor
same,choline production,rat mesangial cells,very weak effects
same,release of prostaglandin E2 and 12,[5],stimulated
same,"formation of cAMP in response to histamine, serotonin and parathyroid hormone",[6],did not have this effect
same,prostaglandin release,[7],increases
same,prostaglandin release,human astrocytes,increases
same,dilation of coronary artery rings,[1],dilates
same,depolarization of nodose ganglion,[8],does not
same,excitation of neurons,[2],weaker
same,excitation of neurons,[2]; listed as Ang(1-7),excited
same,effect on water intake,water intake,completely inactive
